Measurements reported in US20250042896A1, “POLYCYCLIC COMPOUND AS CBL-B INHIBITOR” (HAINAN SIMCERE ZAIMING PHARMACEUTICAL CO., LTD., priority 2021, published 2025).
pEC50, pIC50: −log10 of the molar value.

Legend:
Jurkat T cells = assay: Jurkat T activation assay (IL-2 release, ELISA); type: cell-based; conditions: IL-2 release of Jurkat T cells, Anti-Human CD3/CD28 stimulation, 48 hours, IL-2 ELISA
Protocol: Experiment purpose: Testing of effect of compounds on IL-2 release and activation of Jurkat T cells
Experimental method: 96-well cell plates (Corning) were coated with 2 μg/mL Anti-Human CD3 Clone OKT3 (BD) at 37° C. for 4 hours. 3-fold serial dilutions of compounds (final concentration 10 μM-4.6 nM, starting concentration 10 μM, 3-fold dilution, 8 points, 8th point being 4.6 nM) and 220 μL of 1.11×10^6/mL Jurkat T cells (ATCC) were incubated for 1 hour, 5 μL of 45 μg/mL Anti-Human CD28 Clone CD28.2 (BD) was added, mixed evenly, 100 μL was transferred to the aforementioned CD3-coated cell plate, cultured in a cell incubator at 37° C. for 48 hours, and the supernatant was collected and the IL-2 release was detected using an IL-2 ELISA kit (BD). EC50 was analyzed using Prism.

[1] = biological target: Cbl-b protein and UbcH5B-Ub (Homo sapiens (Human), UniProt Q13191); assay: Cbl-b activity assay (HTRF, interaction between Cbl-b protein and UbcH5B-Ub); type: biochemical; conditions: inhibition of interaction between Biotin-Cbl-b protein and Eu-Ubquitin-UbcH5B, HTRF signal 665 nm/615 nm
Cbl-b protein and UbcH5B-Ub, sequence (Q13191 whole entry, species assumed): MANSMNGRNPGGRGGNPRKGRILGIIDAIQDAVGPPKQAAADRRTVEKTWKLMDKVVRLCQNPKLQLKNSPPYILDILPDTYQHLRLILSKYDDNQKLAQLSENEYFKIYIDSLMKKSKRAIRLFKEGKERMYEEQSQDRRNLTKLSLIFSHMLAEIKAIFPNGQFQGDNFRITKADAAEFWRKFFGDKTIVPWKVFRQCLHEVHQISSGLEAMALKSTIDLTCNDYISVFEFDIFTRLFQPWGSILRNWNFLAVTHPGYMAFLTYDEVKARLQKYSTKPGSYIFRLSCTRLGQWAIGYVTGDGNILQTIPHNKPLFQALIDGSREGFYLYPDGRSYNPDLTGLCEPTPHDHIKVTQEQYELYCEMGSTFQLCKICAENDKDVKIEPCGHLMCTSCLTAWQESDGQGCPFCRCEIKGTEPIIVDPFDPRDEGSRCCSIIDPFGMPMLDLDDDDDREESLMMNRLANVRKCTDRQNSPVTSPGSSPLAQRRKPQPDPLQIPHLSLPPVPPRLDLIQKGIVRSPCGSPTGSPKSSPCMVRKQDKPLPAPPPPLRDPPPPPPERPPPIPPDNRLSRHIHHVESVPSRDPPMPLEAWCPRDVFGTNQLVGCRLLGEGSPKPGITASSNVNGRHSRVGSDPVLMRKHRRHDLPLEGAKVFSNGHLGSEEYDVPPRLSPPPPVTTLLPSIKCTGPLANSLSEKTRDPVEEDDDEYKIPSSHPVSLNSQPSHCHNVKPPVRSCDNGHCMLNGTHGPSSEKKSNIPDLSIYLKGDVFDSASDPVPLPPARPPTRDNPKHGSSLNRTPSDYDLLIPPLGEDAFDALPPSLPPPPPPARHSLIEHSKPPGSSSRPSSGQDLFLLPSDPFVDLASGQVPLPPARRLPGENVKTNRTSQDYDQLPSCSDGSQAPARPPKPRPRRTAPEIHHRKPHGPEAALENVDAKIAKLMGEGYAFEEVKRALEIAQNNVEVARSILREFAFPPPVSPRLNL
Protocol: Experiment purpose: Testing of inhibitory activity of compounds on the interaction between Cbl-b protein and UbcH5B-Ub
Experimental method: Eu-Ubquitin-UbcH5B was prepared by incubating Eu-Ubquitin (Cisbio) with UbcH5B (ENZO), E1 (ENZO) at 37° C. for 4 hours. Eu-Ubquitin-UbcH5B was aliquoted and stored at −80° C. Cbl-b activity assay was performed in 384-well plates (Perkin Elmer). 100 nL of 3-fold serial dilutions of compounds (final concentration 10 μM-0.5 nM, starting concentration 10 μM, 3-fold dilution, 10 points, 10th point being 0.5 nM) and 5 μL of 50 nM Biotin-Cbl-b protein (Sigma) were incubated for 1 hour at room temperature, and the reaction buffer was 50 mM HEPES pH 7.0 (Gibco), 100 mM NaCl (Sigma), 0.01% Triton X-100 (Sigma), 0.01% BSA (Sigma) and 1 mM DTT (Invitrogen). 5 μL of Src mixed solution (40 nM Src (R&D), 2 mM ATP (Sigma), 10 mM MgCl2 (Sigma)) was added to the reaction plate and incubated at room temperature for 3 hours. 10 μL of detection solution (12.5 nM Strepdividin-XL665 (Cisbio), 500 nM Eu-Ubquitin-UbcH5B, […] (Invitrogen), 0.004% BSA (Sigma)) was added to the reaction plate, incubated overnight at room temperature, and the HTRF signal (665 nm/615 nm) was read on Envision (Perkin Elmer). IC50 was calculated using IDBS XLfit.

## Cc1cc(CN2CCC[C@H](C)C2)cc2c(=O)c(-c3cccc(C4(c5nncn5C)CC(F)C4)c3)coc12 (stereo partly drawn) [Compound 69, 3-(3-((1R,3S)-3-fluoro-1-(4-methyl-4H-1,2,4-triazol-3-yl)cyclobutyl)phenyl)-8-methyl-6-(((S)-3-methylpiperidin-1-yl)methyl)-4H-chromen-4-one]
Jurkat T cells
  pEC50: 6.26
[1]
  pIC50: 7.82

## Cc1cc(CN2CCC[C@H](C)C2)cc2c(=O)c(-c3cccc(C(F)(c4nncn4C)C4CC4)c3)coc12 (stereo partly shown) [Compound 120]
Jurkat T cells
  pEC50: 6.16
[1]
  pIC50: 7.76

## Cc1c(F)c(CNC2(C)CCC2)cc2c(=O)c(-c3cccc([C@]4(c5nncn5C)C[C@@H](C)C4)c3)coc12 [Compound 122, 7-fluoro-8-methyl-3-(3-(cis-3-methyl-1-(4-methyl-4H-1,2,4-triazol-3-yl)cyclobutyl)phenyl)-6-(((1-methylcyclobutyl)amino)methyl)-4H-chromen-4-one]
Jurkat T cells
  pEC50: 6.26
[1]
  pIC50: 7.91

## Cc1cc(C(C)NC2(C)CCC2)cc2c(=O)c(-c3cccc([C@]4(c5nncn5C)C[C@@H](C)C4)c3)coc12 (stereo partly drawn) [Compound 123, 8-methyl-3-(3-(cis-3-methyl-1-(4-methyl-4H-1,2,4-triazol-3-yl)cyclobutyl)phenyl)-6-(1-((1-methylcyclobutyl)amino)ethyl)-4H-chromen-4-one]
Jurkat T cells
  pEC50: 7.27
[1]
  pIC50: 8.27

## Cc1c(F)c(CN2CCC[C@H](C)C2)cc2c(=O)c(-c3cccc(C(c4nncn4C)C4CC4)c3)coc12 (stereo partly drawn) [Compound 124, 3-(3-(cyclopropyl(4-methyl-4H-1,2,4-triazol-3-yl)methyl)phenyl)-7-fluoro-8-methyl-6-(((S)-3-methylpiperidin-1-yl)methyl)-4H-chromen-4-one]
Jurkat T cells
  pEC50: 6.42
[1]
  pIC50: 7.71

## CC(NC1(C)CCC1)c1cc(C(F)(F)F)c2ncc(-c3cccc([C@]4(c5nncn5C)C[C@@H](C)C4)c3)c(=O)n2c1 (stereo partly drawn) [Compound 126, 3-(3-(cis-3-methyl-1-(4-methyl-4H-1,2,4-triazol-3-yl)cyclobutyl)phenyl)-7-(1-((1-methylcyclobutyl)amino)ethyl)-9-(trifluoromethyl)-4H-pyrido[1,2-a]pyrimidin-4-one]
Jurkat T cells
  pEC50: 7.09
[1]
  pIC50: 7.95

## Cc1cc(CN2CCC[C@H](C)C2)cc2c(=O)c(-c3cccc(C(F)(c4nncn4C)C(F)(F)F)c3)coc12 (stereo partly drawn) [Compound 128, 8-methyl-6-(((S)-3-methylpiperidin-1-yl)methyl)-3-(3-(1,2,2,2-tetrafluoro-1-(4-methyl-4H-1,2,4-triazol-3-yl)ethyl)phenyl)-4H-chromen-4-one]
Jurkat T cells
  pEC50: 6.55
[1]
  pIC50: 7.54

## (1S,3R)-3-(4-methyl-4H-1,2,4-triazol-3-yl)-3-(3-(8-methyl-6-(((S)-3-methylpiperidin-1-yl)methyl)-4-oxo-4H-chromen-3-yl)phenyl)cyclobutylacetonitrile [Compound 68]
Jurkat T cells
  pEC50: 6.34
[1]
  pIC50: 7.75
